Laboratory results from ChEMBL document CHEMBL5465560, “Selectivity Literature for EUbOPEN Chemogenomic Library” (2024).

What was measured:
[1] = target: Mitogen-activated protein kinase 6 (Homo sapiens) (UniProt Q16659); test: Selectivity interaction (KinomeScan (DiscoverX)) EUB0000229b MAPK6; settings: at 10 µM
[2] = target: T1, Megakaryocyte-associated tyrosine-protein kinase (Homo sapiens) (UniProt P42679); test: Selectivity interaction (KinomeScan (DiscoverX)) EUB0000229b MATK; settings: at 10 µM
T1 sequence (whole entry): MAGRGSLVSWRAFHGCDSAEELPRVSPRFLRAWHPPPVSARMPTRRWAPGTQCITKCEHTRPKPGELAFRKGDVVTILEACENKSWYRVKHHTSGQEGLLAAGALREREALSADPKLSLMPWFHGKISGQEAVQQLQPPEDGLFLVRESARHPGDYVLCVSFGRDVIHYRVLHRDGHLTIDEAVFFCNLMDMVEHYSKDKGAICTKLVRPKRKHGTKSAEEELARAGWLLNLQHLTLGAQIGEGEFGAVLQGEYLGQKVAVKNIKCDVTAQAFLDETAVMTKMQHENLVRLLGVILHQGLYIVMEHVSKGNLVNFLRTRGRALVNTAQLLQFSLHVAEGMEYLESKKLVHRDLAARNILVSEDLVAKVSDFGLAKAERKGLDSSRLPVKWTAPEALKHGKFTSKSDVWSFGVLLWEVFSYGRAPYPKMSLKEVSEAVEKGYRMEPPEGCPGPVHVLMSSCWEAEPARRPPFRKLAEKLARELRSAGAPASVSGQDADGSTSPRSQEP

[3] = target: Mitogen-activated protein kinase 4 (Homo sapiens) (UniProt P31152); test: Selectivity interaction (KinomeScan (DiscoverX)) EUB0000595a MAPK4; settings: at 10 µM
Mitogen-activated protein kinase 4 (Homo sapiens), sequence (P31152 whole entry): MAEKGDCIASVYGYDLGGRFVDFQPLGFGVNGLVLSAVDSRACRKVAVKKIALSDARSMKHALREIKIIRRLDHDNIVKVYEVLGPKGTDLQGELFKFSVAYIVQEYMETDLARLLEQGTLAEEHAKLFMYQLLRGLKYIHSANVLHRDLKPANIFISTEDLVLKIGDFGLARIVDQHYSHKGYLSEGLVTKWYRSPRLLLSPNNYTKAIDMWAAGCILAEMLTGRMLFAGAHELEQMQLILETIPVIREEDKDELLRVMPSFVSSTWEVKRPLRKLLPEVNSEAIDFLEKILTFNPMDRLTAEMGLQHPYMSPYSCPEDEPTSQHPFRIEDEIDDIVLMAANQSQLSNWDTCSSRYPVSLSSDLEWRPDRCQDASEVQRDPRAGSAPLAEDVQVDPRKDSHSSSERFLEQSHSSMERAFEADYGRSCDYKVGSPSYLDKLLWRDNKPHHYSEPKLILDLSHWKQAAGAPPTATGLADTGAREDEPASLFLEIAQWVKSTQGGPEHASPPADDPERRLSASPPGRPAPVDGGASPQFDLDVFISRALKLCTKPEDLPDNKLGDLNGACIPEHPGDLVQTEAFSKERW

[4] = target: Protein-tyrosine kinase 2-beta (Homo sapiens) (UniProt Q14289); test: Selectivity interaction (KinomeScan (DiscoverX)) EUB0000595a PTK2B; settings: at 10 µM
Protein-tyrosine kinase 2-beta (Homo sapiens), sequence (Q14289 whole entry, looked up): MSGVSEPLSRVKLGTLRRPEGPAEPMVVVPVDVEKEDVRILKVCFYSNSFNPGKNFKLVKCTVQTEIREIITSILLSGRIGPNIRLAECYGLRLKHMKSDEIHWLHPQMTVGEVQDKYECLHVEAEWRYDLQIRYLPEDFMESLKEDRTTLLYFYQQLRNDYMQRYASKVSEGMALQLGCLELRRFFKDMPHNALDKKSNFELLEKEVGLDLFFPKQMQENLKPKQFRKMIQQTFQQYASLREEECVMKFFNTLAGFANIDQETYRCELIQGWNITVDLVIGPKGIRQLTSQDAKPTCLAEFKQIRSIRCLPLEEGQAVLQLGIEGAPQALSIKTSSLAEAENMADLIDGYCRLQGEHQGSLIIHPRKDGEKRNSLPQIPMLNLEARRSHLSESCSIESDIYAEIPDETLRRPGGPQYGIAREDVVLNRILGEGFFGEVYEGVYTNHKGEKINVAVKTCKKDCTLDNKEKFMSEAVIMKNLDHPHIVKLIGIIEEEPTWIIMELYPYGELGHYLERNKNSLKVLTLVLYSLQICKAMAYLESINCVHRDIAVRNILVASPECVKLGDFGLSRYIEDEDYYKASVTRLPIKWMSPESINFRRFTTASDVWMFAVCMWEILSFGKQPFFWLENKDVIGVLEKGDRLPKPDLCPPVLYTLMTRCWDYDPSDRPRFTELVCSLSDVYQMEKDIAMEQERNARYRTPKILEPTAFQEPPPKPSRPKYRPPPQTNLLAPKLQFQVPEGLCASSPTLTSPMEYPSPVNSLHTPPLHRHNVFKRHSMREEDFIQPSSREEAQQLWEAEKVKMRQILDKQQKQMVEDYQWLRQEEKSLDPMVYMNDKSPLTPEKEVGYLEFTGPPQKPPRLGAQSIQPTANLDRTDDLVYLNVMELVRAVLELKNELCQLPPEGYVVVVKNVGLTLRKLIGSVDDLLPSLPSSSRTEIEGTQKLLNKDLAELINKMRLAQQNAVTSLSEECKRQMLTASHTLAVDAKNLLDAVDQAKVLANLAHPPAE

[5] = target: Mitogen-activated protein kinase 10 (Homo sapiens, UniProt P53779); test: Selectivity interaction (KinomeScan (DiscoverX)) EUB0000045b MAPK10
Mitogen-activated protein kinase 10, sequence (P53779 whole entry): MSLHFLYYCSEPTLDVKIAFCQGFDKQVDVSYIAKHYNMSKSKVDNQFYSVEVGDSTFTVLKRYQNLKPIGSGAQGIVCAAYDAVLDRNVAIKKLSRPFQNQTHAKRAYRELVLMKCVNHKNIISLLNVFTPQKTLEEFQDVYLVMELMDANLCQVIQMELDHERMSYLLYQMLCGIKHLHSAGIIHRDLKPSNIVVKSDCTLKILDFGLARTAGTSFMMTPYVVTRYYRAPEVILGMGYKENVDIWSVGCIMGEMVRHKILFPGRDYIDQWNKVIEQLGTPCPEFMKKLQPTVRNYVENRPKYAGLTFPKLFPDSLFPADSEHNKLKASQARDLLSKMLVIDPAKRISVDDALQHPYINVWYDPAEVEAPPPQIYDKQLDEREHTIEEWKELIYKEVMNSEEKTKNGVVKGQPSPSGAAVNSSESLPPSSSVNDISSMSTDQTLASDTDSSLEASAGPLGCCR

Activated CDC42 kinase 1 = Activated CDC42 kinase 1 (Homo sapiens, UniProt Q07912); test: Selectivity interaction (KinomeScan (DiscoverX)) EUB0001079a TNK2; settings: at 1 µM
Activated CDC42 kinase 1, sequence (Q07912 whole entry, looked up): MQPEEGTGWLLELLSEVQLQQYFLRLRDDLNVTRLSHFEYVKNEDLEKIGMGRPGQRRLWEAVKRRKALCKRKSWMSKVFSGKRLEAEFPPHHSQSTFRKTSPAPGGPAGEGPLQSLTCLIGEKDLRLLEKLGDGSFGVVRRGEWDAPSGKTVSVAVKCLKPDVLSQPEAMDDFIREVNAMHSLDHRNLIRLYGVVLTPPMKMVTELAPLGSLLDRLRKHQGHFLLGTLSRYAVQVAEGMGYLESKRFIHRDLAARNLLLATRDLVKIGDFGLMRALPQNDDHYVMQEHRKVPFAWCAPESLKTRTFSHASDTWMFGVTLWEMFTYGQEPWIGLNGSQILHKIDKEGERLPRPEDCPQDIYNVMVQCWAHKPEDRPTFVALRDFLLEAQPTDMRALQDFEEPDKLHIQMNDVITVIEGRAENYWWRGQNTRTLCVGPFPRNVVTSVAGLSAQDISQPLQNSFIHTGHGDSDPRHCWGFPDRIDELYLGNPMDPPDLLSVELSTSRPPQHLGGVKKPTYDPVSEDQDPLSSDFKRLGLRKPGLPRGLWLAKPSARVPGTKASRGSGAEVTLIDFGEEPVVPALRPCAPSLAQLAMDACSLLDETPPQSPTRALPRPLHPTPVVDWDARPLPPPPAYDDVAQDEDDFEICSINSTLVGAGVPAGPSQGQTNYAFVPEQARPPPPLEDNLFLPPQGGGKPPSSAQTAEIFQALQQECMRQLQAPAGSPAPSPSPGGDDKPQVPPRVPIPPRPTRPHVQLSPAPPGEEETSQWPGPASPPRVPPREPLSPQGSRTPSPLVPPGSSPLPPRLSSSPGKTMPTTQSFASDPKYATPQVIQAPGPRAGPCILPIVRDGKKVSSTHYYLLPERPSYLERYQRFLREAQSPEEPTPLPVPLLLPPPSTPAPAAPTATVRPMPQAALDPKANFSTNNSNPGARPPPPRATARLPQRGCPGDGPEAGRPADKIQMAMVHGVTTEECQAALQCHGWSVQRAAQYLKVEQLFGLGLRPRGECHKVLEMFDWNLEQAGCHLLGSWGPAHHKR

[6] = target: Activin receptor type-1-like (Homo sapiens) (UniProt P37023); test: Selectivity interaction (LanthaScreen Eu Kinase Binding Assay) EUB0001632a ACVRL1; settings: at 10 µM
Activin receptor type-1-like (Homo sapiens), sequence (P37023 whole entry): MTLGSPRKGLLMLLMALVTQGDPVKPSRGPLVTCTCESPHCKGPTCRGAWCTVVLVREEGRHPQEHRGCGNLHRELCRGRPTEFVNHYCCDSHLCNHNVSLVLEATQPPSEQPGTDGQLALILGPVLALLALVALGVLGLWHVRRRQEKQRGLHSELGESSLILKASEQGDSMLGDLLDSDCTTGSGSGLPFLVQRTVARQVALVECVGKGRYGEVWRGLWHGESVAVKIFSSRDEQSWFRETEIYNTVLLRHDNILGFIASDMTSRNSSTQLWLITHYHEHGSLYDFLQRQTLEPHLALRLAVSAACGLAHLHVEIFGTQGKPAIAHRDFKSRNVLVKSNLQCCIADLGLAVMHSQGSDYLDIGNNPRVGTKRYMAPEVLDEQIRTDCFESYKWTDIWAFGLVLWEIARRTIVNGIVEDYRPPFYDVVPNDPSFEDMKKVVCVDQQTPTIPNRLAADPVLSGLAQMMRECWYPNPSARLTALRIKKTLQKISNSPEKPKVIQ

[7] = target: T2, MAP/microtubule affinity-regulating kinase 4 (Homo sapiens) (UniProt Q96L34); settings: at 10 µM
T2 sequence (whole entry): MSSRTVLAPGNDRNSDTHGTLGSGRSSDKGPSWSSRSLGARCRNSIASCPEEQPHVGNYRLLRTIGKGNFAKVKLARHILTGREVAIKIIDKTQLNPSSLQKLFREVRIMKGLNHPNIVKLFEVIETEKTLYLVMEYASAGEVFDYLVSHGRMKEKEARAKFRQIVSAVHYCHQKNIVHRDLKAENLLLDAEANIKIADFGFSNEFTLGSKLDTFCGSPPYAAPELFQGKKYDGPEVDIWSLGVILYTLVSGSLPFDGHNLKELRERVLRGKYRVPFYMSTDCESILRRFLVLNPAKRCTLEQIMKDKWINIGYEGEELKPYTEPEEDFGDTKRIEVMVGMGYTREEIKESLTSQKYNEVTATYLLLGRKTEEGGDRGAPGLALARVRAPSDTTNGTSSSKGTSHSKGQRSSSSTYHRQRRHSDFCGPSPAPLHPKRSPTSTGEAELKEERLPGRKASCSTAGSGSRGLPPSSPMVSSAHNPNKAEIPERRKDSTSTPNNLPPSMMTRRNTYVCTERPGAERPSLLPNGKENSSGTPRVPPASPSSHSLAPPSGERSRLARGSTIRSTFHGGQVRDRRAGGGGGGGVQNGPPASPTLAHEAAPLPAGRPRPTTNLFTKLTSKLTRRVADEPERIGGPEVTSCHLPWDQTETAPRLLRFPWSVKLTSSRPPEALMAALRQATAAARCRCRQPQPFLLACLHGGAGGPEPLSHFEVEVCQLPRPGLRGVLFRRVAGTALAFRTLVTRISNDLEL

[8] = target: Macrophage colony-stimulating factor 1 receptor (Homo sapiens) (UniProt P07333); test: Selectivity interaction (KinomeScan (DiscoverX)) EUB0001619a CSF1R; settings: at 1 µM
SRSF protein kinase 1 = SRSF protein kinase 1 (Homo sapiens, UniProt Q96SB4); test: Selectivity interaction (ActivX KiNativ screen (kinase selectivity in THP-1 cell lysates)) EUB0000639a SRPK1; assay type: subcellular; settings: lysate, at 1 µM
SRSF protein kinase 1, sequence (Q96SB4 whole entry): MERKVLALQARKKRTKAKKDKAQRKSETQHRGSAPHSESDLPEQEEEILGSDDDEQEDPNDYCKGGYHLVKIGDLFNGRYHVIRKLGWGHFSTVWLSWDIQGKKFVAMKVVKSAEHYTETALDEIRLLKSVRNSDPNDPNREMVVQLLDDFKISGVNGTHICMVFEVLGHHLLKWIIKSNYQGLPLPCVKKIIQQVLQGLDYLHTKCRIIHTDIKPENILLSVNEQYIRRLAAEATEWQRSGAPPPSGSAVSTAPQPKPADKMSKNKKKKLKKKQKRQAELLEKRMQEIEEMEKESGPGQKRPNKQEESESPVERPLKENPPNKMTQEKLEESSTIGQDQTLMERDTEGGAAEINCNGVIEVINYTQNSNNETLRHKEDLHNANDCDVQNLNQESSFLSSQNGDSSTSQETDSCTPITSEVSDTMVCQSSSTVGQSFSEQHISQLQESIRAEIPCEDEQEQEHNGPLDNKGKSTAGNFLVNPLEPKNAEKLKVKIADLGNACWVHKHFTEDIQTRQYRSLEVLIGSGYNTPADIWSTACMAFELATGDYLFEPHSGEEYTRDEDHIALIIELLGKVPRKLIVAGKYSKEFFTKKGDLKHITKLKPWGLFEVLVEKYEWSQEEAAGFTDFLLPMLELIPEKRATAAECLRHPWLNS

[9] = target: Tyrosine-protein kinase JAK2 (Homo sapiens, UniProt O60674); test: Selectivity interaction (Kinase panel (Invitrogen)) EUB0000639a JAK2; settings: at 200 nM
[10] = target: T3, Ephrin type-A receptor 8 (Homo sapiens) (UniProt P29322); test: Selectivity interaction (KinomeScan (DiscoverX)) EUB0000655a EPHA8; settings: at 10 µM
T3 sequence (whole entry): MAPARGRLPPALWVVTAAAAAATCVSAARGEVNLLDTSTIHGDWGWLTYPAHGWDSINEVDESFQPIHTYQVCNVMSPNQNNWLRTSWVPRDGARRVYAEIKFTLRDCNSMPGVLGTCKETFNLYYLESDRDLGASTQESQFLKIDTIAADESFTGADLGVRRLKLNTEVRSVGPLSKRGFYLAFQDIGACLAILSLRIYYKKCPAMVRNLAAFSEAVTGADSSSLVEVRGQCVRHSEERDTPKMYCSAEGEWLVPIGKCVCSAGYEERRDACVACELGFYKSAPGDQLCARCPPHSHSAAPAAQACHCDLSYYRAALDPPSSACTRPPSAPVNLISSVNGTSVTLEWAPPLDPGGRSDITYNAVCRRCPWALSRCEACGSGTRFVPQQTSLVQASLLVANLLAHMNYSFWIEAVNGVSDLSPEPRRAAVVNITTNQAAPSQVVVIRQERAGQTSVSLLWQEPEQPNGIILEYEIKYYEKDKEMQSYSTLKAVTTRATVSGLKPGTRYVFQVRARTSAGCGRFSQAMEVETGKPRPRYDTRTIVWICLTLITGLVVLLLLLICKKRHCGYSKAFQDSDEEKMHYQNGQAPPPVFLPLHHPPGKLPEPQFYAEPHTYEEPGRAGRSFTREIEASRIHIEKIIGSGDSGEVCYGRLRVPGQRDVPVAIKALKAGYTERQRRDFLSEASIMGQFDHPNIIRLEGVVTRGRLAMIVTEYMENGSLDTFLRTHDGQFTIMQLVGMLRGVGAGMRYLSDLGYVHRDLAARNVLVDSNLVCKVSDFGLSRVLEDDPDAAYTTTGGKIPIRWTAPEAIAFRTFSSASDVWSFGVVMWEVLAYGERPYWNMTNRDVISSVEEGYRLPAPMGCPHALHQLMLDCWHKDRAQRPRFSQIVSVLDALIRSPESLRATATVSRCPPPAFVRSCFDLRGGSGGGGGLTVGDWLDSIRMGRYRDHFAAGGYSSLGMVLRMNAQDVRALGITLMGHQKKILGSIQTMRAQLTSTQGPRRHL

Mitogen-activated protein kinase 6 (Homo sapiens), sequence (Q16659 whole entry): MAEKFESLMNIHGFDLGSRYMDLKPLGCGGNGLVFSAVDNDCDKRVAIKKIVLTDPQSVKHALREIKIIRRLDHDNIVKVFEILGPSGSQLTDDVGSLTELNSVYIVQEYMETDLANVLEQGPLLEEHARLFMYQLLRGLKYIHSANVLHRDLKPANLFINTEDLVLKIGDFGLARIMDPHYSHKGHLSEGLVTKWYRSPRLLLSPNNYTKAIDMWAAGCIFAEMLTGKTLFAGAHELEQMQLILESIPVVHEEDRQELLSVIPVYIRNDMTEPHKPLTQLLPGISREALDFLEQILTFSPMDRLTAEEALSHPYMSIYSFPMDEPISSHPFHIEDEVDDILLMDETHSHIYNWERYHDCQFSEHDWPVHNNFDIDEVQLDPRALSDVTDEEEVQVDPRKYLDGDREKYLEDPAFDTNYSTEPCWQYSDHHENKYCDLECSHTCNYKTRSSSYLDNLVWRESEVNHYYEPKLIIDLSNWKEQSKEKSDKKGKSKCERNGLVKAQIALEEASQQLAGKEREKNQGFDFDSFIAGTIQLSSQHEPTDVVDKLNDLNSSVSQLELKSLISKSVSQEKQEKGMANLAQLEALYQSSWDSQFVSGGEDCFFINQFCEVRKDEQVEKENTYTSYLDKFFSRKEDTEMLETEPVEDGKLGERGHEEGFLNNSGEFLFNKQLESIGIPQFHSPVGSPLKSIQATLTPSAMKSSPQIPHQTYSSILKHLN

COc1cc(N(C)c2ccnc3ccc(C(F)(F)F)cc23)cc(OC)c1OC
% binding [1]: 100%
% binding [2]: 81%

COCC(=O)NC/C=C/c1ccc2ncnc(Nc3ccc(Oc4ccc(C)nc4)c(C)c3)c2c1 [CP-724714]
% of control [3]: 100%
% of control [4]: 80%

C=CC(=O)Nc1cc(-n2c(=O)ccc3cnc4ccc(-c5ccc(NS(C)(=O)=O)cc5)cc4c32)ccc1C
% of control ([5]; at 1 µM): 100%
% of control ([5]; at 10 µM): 20%

Nc1cnc(N2CCc3cc(S(=O)(=O)Nc4c(F)cc(Cl)cc4F)cc(N4CCCC4=O)c32)nc1 [TP-020n]
% of control (Activated CDC42 kinase 1): 91%

Cn1cc(-n2cnc3c(NCc4nc5cc(Cl)c(Cl)cc5[nH]4)nc(N4CCOCC4)nc32)cn1
% of inhibition [6]: -13%

Cc1cc([C@@H](C)Nc2ccccc2C(=O)O)c2nc(N3CCOCC3)cc(=O)n2c1 [AZD-6482]
% of control [7]: 100%

N#Cc1cccc(-c2c[nH]c3ncnc(N4CCOCC4)c23)c1
% of control [8]: 100%

CC[C@@H]1[C@H](F)C(=O)N[C@@H]1COc1nccc2cc(C(N)=O)c(OC)cc12 [ZIMLOVISERTIB]
% of inhibition (SRSF protein kinase 1): 0.5%
% of inhibition [9]: 17.6%

CN(C)CCOc1ccc(-c2nc(-c3ccncc3)c(-c3ccc4c(c3)CC/C4=N\O)[nH]2)cc1
% of control [10]: 100%
